Results published in patent publication US7524487B2, “Compositions and methods for modulating interleukin-10” (University of Maryland, priority 2005, dated 2009).

Test system: IL-10 promoter
Test: DNase I accessibility of the IL-10 promoter (nucleosome −2) by QRT-PCR
Format: cell-based, mice
Settings: BMMφ pre-treated with PD98059 15 μM for 1 hour, IC plus LPS 10 ng/mL for 60 min
Experimental: FIG. 23 are graphs showing enhanced chromatin accessibility following ERK activation. (A) BMMφ were stimulated with IC plus LPS (10 ng/mL) for 0, 15, 30, 60, and 120 min. Nuclei were isolated at each time point post-stimulation and treated with or without MNase. DNA was purified and analyzed for the presence of sequences corresponding to nucleosomes −2 and −12 by QRT-PCR. The data were graphically plotted as percentage of MNase accessibility relative to the samples of stimulation at zero time point. (B) BMMφwere pre-treated with PD98059 (15 μM) (open bars) or drug vehicle control (solid bars) for 1 hour and then stimulated with IC plus LPS (10 ng/mL) for 60 min. Nuclei were isolated from each group and treated with or without DNase I followed by extraction of genomic DNA. […] The data were expressed as percentage of DNase I accessibility relative to undigested genomic DNA sample and graphically plotted for each treated group. […]
DNase I sensitivity assayed by Real-time PCR. DNase I accessibility was determined as previously described (Goriely, et al. 2003. Blood 101:4894-4902; Rao, et al. 2001. J. Immunol. 167:4494-4503.) with minor modifications. […]
MNase accessibility assay was performed on cells grown in 100-mm tissue culture dishes that were stimulated with LPS/IC. […] DNase I accessibility was determined as previously described (Lucas, M., X. Zhang, et al. 2005. J. Immunol. 175:469).

reduction of sensitivity to DNase I at nucleosome −2: greater than half
Structure (SMILES): COc1cccc(-c2cc(=O)c3ccccc3o2)c1N [PD98059]
